The first experiment concerns the target 5-HT2A receptors (UniProt P14842). The experiment can be described thus: in-vitro affinity to 5-HT2A receptors, [3H]ketanserine displacement (Example A1). Format: binding. The text has this:
The 5-HT2A receptors are exposed both to [^3H]ketanserine (a substance known for its affinity to the receptor) and also to the test compound. The decrease in the affinity of [^3H]ketanserine to the receptor is an indication of the affinity of the test substance to the 5-HT2A receptor.
The IC50 is the point on the concentration scale where inhibition reaches its midpoint. Read a low IC50 as greater potency. On to `OC1CCN(Cc2cnn(-c3ccc(-c4ccc(F)cc4)cc3)c2-c2ccccc2Cl)C1` (stereo not shown) [Example 636, 1-[5-(2-Chlorophenyl)-1-(4′-fluorobiphenyl-4-yl)-1H-pyrazol-4-ylmethyl]pyrrolidin-3-ol], for which the IC50 came out at 42 nM.

For `CCN(CC)Cc1cnn(-c2ccc(-c3ccc(F)cc3)cc2)c1-c1cccc(Cl)c1` [Example 682, [5-(3-Chlorophenyl)-1-(4′-fluorobiphenyl-4-yl)-1H-pyrazol-4-ylmethyl]diethylamine], the IC50 is 190 nM.

With `O=C1NCCCCC1NCc1cnn(-c2ccc(-c3ccc(F)cc3)cc2)c1-c1ccco1` (stereo not shown) [Example 694, 3-{[1-(4′-Fluorobiphenyl-4-yl)-5-furan-2-yl-1H-pyrazol-4-ylmethyl]amino}azepan-2-one], the IC50 was determined as 290 nM.

On to `COc1cccc(-c2c(CN3CCN(C)CC3)cnn2-c2ccc(-c3ccc(F)cc3)cc2)c1` [Example 627, 1-[1-(4′-Fluorobiphenyl-4-yl)-5-(3-methoxyphenyl)-1H-pyrazol-4-ylmethyl]-4-methylpiperazine], for which the IC50 is 36 nM.

`CCN(CC)Cc1cnn(-c2ccc(-c3ccc(F)cc3)cc2)c1-c1ccoc1` [Example 662, Diethyl-[1-(4′-fluorobiphenyl-4-yl)-5-furan-3-yl-1H-pyrazol-4-ylmethyl]amine] showed an IC50 of 78 nM.

For `OCCCCNCc1cnn(-c2ccc(-c3ccc(F)cc3)cc2)c1-c1ccco1` [Example 617, 4-{[1-(4′-Fluorobiphenyl-4-yl)-5-furan-2-yl-1H-pyrazol-4-ylmethyl]amino}butan-1-ol], the IC50 is 32 nM.

`CCN(CC)CCCNCc1cnn(-c2ccc(-c3ccc(F)cc3)cc2)c1-c1ccco1` [Example 609, N,N-Diethyl-N′-[1-(4′-fluorobiphenyl-4-yl)-5-furan-2-yl-1H-pyrazol-4-ylmethyl]propane-1,3-diamine] had an IC50 of 29 nM.

The compound `Cc1nn(-c2ccccc2)c(C)c1CN1CCN(C(=O)[C@]2(C)CC[C@@H](C(=O)O)C2(C)C)CC1` [Example 687] returned an IC50 of 210 nM.

Compound `COc1ccc(-c2ccc(-n3ncc(CNCc4cc[nH]n4)c3-c3ccco3)cc2)cc1` [Example 656, [5-Furan-2-yl-1-(4′-methoxybiphenyl-4-yl)-1H-pyrazol-4-ylmethyl]-(1H-pyrazol-3-ylmethyl)amine] came in with an IC50 of 71 nM.

Consider `CC(C)(C)OC(=O)NC1CCN(Cc2cnn(-c3ccc(-c4ccc5c(c4)OCO5)cc3)c2-c2ccco2)CC1` [Example 611, tert-Butyl {1-[1-(4-benzo-1,3-dioxol-5-ylphenyl)-5-furan-2-yl-1H-pyrazol-4-ylmethyl]piperidin-4-yl}carbamate], for which the IC50 is 31 nM.

`CN1CCN(Cc2cnn(-c3ccc(-c4ccc(F)cc4)cc3)c2-c2c(F)cccc2F)CC1` [Example 573, 1-[5-(2,6-Difluorophenyl)-1-(4′-fluorobiphenyl-4-yl)-1H-pyrazol-4-ylmethyl]-4-methylpiperazine]: the IC50 came to 13 nM.

With `CN(CCC#N)Cc1cnn(-c2ccc(-c3ccc(F)cc3)cc2)c1-c1ccco1` [Example 669, 3-{[1-(4′-Fluorobiphenyl-4-yl)-5-furan-2-yl-1H-pyrazol-4-ylmethyl]methylamino}propionitrile], the IC50 is 95 nM.

In turn, `CN1CCN(Cc2cnn(-c3ccc(-c4ccccc4F)cc3)c2-c2ccco2)CC1` [Example 599, 1-[1-(2′-Fluorobiphenyl-4-yl)-5-furan-2-yl-1H-pyrazol-4-ylmethyl]-4-methylpiperazine] had an IC50 of 25 nM.

`OC1CCN(Cc2cnn(-c3ccc(-c4ccc(F)cc4)cc3)c2-c2ccoc2)C1` (stereo not shown) [Example 670, 1-[1-(4′-Fluorobiphenyl-4-yl)-5-furan-3-yl-1H-pyrazol-4-ylmethyl]pyrrolidin-3-ol] showed an IC50 of 96 nM.

Take `CC(C)(C)OC(=O)NC1CCN(Cc2cnn(-c3ccc(-c4ccc5c(c4)OCCO5)cc3)c2-c2ccco2)CC1` [Example 566, tert-Butyl (1-{1-[4-(2,3-dihydrobenzo-1,4-dioxin-6-yl)phenyl]-5-furan-2-yl-1H-pyrazol-4-ylmethyl}piperidin-4-yl)carbamate]: the IC50 was 11 nM.

Consider `CC1CCCN1Cc1cnn(-c2ccc(-c3cccc(F)c3)cc2)c1-c1ccco1` (stereo not shown) [Example 620, 1-(3′-Fluorobiphenyl-4-yl)-5-furan-2-yl-4-(2-methylpyrrolidin-1-ylmethyl)-1H-pyrazole], for which the IC50 turned out to be 34 nM.

Regarding `COCCN1CCN(Cc2cnn(-c3ccc(-c4ccc(F)cc4)cc3)c2-c2ccoc2)CC1` [Example 664, 1-[1-(4′-Fluorobiphenyl-4-yl)-5-furan-3-yl-1H-pyrazol-4-ylmethyl]-4-(2-methoxyethyl)piperazine], the IC50 was 85 nM.

As for `NC1CCN(Cc2cnn(-c3ccc(-c4cccc(F)c4)cc3)c2-c2ccco2)CC1` [Example 673, 1-[1-(3′-Fluorobiphenyl-4-yl)-5-furan-2-yl-1H-pyrazol-4-ylmethyl]piperidin-4-ylamine], the IC50 is 120 nM.

Take `Cc1noc(C)c1-c1c(CN2CCN(C)CC2)cnn1-c1ccc(-c2ccc(F)cc2)cc1` [Example 696, 1-[5-(3,5-Dimethylisoxazol-4-yl)-1-(4′-fluorobiphenyl-4-yl)-1H-pyrazol-4-ylmethyl]-4-methylpiperazine]: the IC50 worked out at 320 nM.

`COc1ccc(-c2ccc(-n3ncc(CNCc4ccccn4)c3-c3ccco3)cc2)cc1` [Example 641, [5-Furan-2-yl-1-(4′-methoxybiphenyl-4-yl)-1H-pyrazol-4-ylmethyl]pyridin-2-ylmethylamine] came in with an IC50 of 46 nM.

On to `CN1CCN(Cc2cnn(-c3ccc(-c4ccc5c(c4)OCCO5)cc3)c2-n2cccc2)CC1` [Example 651, 1-{1-[4-(2,3-Dihydrobenzo-1,4-dioxin-6-yl)phenyl]-5-pyrrol-1-yl-1H-pyrazol-4-ylmethyl}-4-methylpiperazine], for which the IC50 was 55 nM.

As to `COCCN1CCN(Cc2cnn(-c3ccc(-c4ccc(F)cc4)cc3)c2-c2cccc(OC)c2)CC1` [Example 685, 1-[1-(4′-Fluorobiphenyl-4-yl)-5-(3-methoxyphenyl)-1H-pyrazol-4-ylmethyl]-4-(2-methoxyethyl)piperazine], the IC50 amounted to 190 nM.

`COc1ccc(-c2ccc(-n3ncc(CN4CCN(C)CC4)c3-c3ccccc3F)cc2)cn1` [Example 648, 1-{5-(2-Fluorophenyl)-1-[4-(6-methoxypyridin-3-yl)phenyl]-1H-pyrazol-4-ylmethyl}-4-methylpiperazine]: the IC50 is 53 nM.

Turning to `CCN1CCN(Cc2cnn(-c3ccc(-c4ccc(F)cc4)cc3)c2-c2cccc(Cl)c2)CC1` [Example 650, 1-[5-(3-Chlorophenyl)-1-(4′-fluorobiphenyl-4-yl)-1H-pyrazol-4-ylmethyl]-4-ethylpiperazine], the IC50 worked out at 54 nM.

On to `COc1ccc(-c2ccc(-n3ncc(CNCc4cc5ccccc5n4C)c3-c3ccco3)cc2)cc1` [Example 695, [5-Furan-2-yl-1-(4′-methoxybiphenyl-4-yl)-1H-pyrazol-4-ylmethyl]-(1-methyl-1H-indol-2-ylmethyl)amine], for which the IC50 is 300 nM.

`CN1CCC(N(C)Cc2cnn(-c3ccc(-c4ccc(F)cc4)cc3)c2-c2ccco2)C1` (stereo not shown) [Example 575, [1-(4′-Fluorobiphenyl-4-yl)-5-furan-2-yl-1H-pyrazol-4-ylmethyl]methyl-(1-methyl-3-pyrrolidinyl)amine]: the IC50 amounted to 14.7 nM.

Turning to `Fc1ccccc1-c1c(CCN2CCOCC2)cnn1-c1ccc(-c2ccccc2)cc1` [Example 632, 4-{2-[1-Biphenyl-4-yl-5-(2-fluorophenyl)-1H-pyrazol-4-yl]ethyl}morpholine], the IC50 is 40 nM.

Compound `OCCCNCc1cnn(-c2ccc(-c3ccc(F)cc3)cc2)c1-c1ccco1` [Example 668, 3-{[1-(4′-Fluorobiphenyl-4-yl)-5-furan-2-yl-1H-pyrazol-4-ylmethyl]amino}propan-1-ol] had an IC50 of 94 nM.

For the compound `COc1ccc(-c2ccc(-n3ncc(CNCc4nccs4)c3-c3ccco3)cc2)cc1` [Example 688, [5-Furan-2-yl-1-(4′-methoxybiphenyl-4-yl)-1H-pyrazol-4-ylmethyl]thiazol-2-ylmethylamine], the IC50 amounted to 220 nM.

`Cc1ccoc1-c1c(CN2CCN(C(=O)OC(C)(C)C)CC2)cnn1-c1ccc(-c2ccc(F)cc2)cc1` [Example 689, tert-Butyl 4-[1-(4′-fluorobiphenyl-4-yl)-5-(3-methyl-2-furanyl)-1H-pyrazol-4-ylmethyl]piperazine-1-carboxylate] displayed an IC50 of 220 nM.

Turning to `CC#Cc1ccc(-c2ccc(-n3ncc(CN4CCN(C)CC4)c3-c3ccccc3F)cc2)c(F)c1` [Example 667, 1-[5-(2-Fluorophenyl)-1-(2′-fluoro-4′-prop-1-ynylbiphenyl-4-yl)-1H-pyrazol-4-ylmethyl]-4-methylpiperazine], the IC50 is 93 nM.

`CN(CCc1ccccc1)Cc1cnn(-c2ccc(-c3ccc(F)cc3)cc2)c1-c1ccco1` [Example 579, [1-(4′-Fluorobiphenyl-4-yl)-5-furan-2-yl-1H-pyrazol-4-ylmethyl]methylphenethylamine]: the IC50 came out at 16 nM.

The compound `CN1CCN(Cc2cnn(-c3ccc(-c4ccc(F)cc4)cc3)c2-c2ccncc2)CC1` [Example 629, 1-[1-(4′-Fluorobiphenyl-4-yl)-5-pyridin-4-yl-1H-pyrazol-4-ylmethyl]-4-methylpiperazine] returned an IC50 of 37 nM.

A further experiment deals with T1, 5 HT2C receptor (Homo sapiens, UniProt P28335).
T1 sequence (P28335 33-458): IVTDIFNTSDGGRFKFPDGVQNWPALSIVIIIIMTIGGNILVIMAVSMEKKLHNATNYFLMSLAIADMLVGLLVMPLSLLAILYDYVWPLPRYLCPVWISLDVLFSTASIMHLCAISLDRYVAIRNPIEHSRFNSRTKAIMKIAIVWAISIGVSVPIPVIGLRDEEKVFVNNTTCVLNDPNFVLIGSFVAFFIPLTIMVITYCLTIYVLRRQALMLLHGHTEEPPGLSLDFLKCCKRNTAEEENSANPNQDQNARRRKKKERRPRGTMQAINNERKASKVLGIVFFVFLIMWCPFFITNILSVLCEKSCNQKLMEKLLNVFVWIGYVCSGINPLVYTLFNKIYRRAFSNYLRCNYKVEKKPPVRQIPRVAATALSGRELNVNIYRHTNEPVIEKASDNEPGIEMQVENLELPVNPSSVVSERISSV
Description: affinity to the 5 HT2C receptor. Format: binding.
In the case of `OC1CCN(Cc2cnn(-c3ccc(-c4ccc(F)cc4)cc3)c2-c2ccccc2Cl)C1` (stereo not shown) [Example 636, 1-[5-(2-Chlorophenyl)-1-(4′-fluorobiphenyl-4-yl)-1H-pyrazol-4-ylmethyl]pyrrolidin-3-ol], half-maximal inhibition (IC50) was put at 1000 nM.
